From the NIST ThermoML archive (doi:10.1016/j.jct.2009.05.004)
Numbers after ± are expanded uncertainties.

Test: mn = molality of the nth substance listed, in mol/kg
Settings: Liquid, Vibrating tube method

For `[Br-].[Br-].[Zn+2]` [zinc bromide] + CCO, the mass density (333.15 K, 25621 kPa, m1 = 0.3043) was 825.37 ± 0.67 kg/m3, the mass density (333.15 K, 29810 kPa, m1 = 0.4384) was 848.46 ± 0.66 kg/m3 and the mass density (333.15 K, 29875 kPa, m1 = 1.49) was 995.4 ± 0.62 kg/m3. The mass density (333.15 K, 29941 kPa, m1 = 0.05681) was 791.79 ± 0.7 kg/m3, the mass density (333.15 K, 34256 kPa, m1 = 0.3043) was 832.31 ± 0.68 kg/m3 and the mass density (333.15 K, 34920 kPa, m1 = 0.4384) was 852.42 ± 0.67 kg/m3. For the same compound, the mass density (333.15 K, 34965 kPa, m1 = 1.49) was 999.47 ± 0.62 kg/m3, the mass density (333.15 K, 39957 kPa, m1 = 1.49) was 1003.26 ± 0.62 kg/m3 and the mass density (333.16 K, 1604 kPa, m1 = 1.887) was 1020.71 ± 0.62 kg/m3. It also gave a mass density (333.16 K, 5024 kPa, m1 = 0.3043) of 806.15 ± 0.63 kg/m3, a mass density (333.16 K, 10325 kPa, m1 = 0.3043) of 811.46 ± 0.64 kg/m3 and a mass density (333.16 K, 14730 kPa, m1 = 0.4384) of 835.35 ± 0.64 kg/m3. The mass density (333.16 K, 14913 kPa, m1 = 0.9305) was 905.9 ± 0.63 kg/m3, the mass density (333.16 K, 15014 kPa, m1 = 0.05681) was 778.76 ± 0.66 kg/m3 and the mass density (333.16 K, 29941 kPa, m1 = 0.3043) was 828.93 ± 0.67 kg/m3. For the same compound, the mass density (333.16 K, 30014 kPa, m1 = 1.887) was 1047.6 ± 0.62 kg/m3, the mass density (333.16 K, 35068 kPa, m1 = 0.05681) was 795.79 ± 0.71 kg/m3 and the mass density (333.16 K, 39745 kPa, m1 = 0.3043) was 836.38 ± 0.69 kg/m3. The mass density (333.16 K, 39787 kPa, m1 = 0.1696) was 816.47 ± 0.71 kg/m3, the mass density (333.16 K, 39824 kPa, m1 = 0.4384) was 855.99 ± 0.68 kg/m3 and the mass density (333.17 K, 1074 kPa, m1 = 0.4384) was 821.64 ± 0.63 kg/m3. The mass density (333.17 K, 25080 kPa, m1 = 0.9305) was 915 ± 0.63 kg/m3, the mass density (333.17 K, 39803 kPa, m1 = 0.9305) was 926.52 ± 0.64 kg/m3 and the mass density (333.17 K, 39921 kPa, m1 = 0.05681) was 799.36 ± 0.73 kg/m3. It also gave a mass density (333.18 K, 9721 kPa, m1 = 0.1696) of 791.08 ± 0.64 kg/m3, a mass density (333.18 K, 14944 kPa, m1 = 0.1696) of 796.06 ± 0.65 kg/m3 and a mass density (333.18 K, 19908 kPa, m1 = 0.1696) of 800.57 ± 0.66 kg/m3. It also gave a mass density (333.18 K, 19971 kPa, m1 = 1.887) of 1038.86 ± 0.62 kg/m3, a mass density (333.18 K, 25143 kPa, m1 = 1.887) of 1043.47 ± 0.62 kg/m3 and a mass density (333.18 K, 29806 kPa, m1 = 0.1696) of 808.92 ± 0.69 kg/m3. For the same compound, the mass density (333.18 K, 34946 kPa, m1 = 0.1696) was 812.92 ± 0.7 kg/m3, the mass density (333.2 K, 24905 kPa, m1 = 0.1696) was 804.89 ± 0.67 kg/m3 and the mass density (353.12 K, 1215 kPa, m1 = 0.1696) was 762.79 ± 0.63 kg/m3. It also gave a mass density (353.12 K, 4885 kPa, m1 = 0.9305) of 876.1 ± 0.62 kg/m3, a mass density (353.12 K, 24736 kPa, m1 = 0.4384) of 827.02 ± 0.66 kg/m3 and a mass density (353.12 K, 29724 kPa, m1 = 0.4384) of 831.58 ± 0.67 kg/m3. The mass density (353.12 K, 34818 kPa, m1 = 0.1696) was 796.87 ± 0.71 kg/m3, the mass density (353.12 K, 40086 kPa, m1 = 0.9305) was 910.04 ± 0.64 kg/m3 and the mass density (353.13 K, 19976 kPa, m1 = 0.4384) was 822.41 ± 0.65 kg/m3. It also gave a mass density (353.13 K, 29922 kPa, m1 = 1.887) of 1029.35 ± 0.62 kg/m3, a mass density (353.13 K, 34919 kPa, m1 = 0.9305) of 905.88 ± 0.64 kg/m3 and a mass density (353.13 K, 35245 kPa, m1 = 0.05681) of 780.23 ± 0.73 kg/m3. The mass density (353.14 K, 5032 kPa, m1 = 0.3043) was 786.89 ± 0.63 kg/m3, the mass density (353.14 K, 5065 kPa, m1 = 0.05681) was 750.01 ± 0.64 kg/m3 and the mass density (353.14 K, 9866 kPa, m1 = 0.1696) was 772.71 ± 0.65 kg/m3. It also gave a mass density (353.14 K, 9945 kPa, m1 = 1.887) of 1009.26 ± 0.62 kg/m3, a mass density (353.14 K, 19983 kPa, m1 = 0.1696) of 783.31 ± 0.67 kg/m3 and a mass density (353.14 K, 25841 kPa, m1 = 0.3043) of 808.62 ± 0.67 kg/m3. It also gave a mass density (353.14 K, 34738 kPa, m1 = 1.887) of 1033.52 ± 0.62 kg/m3, a mass density (353.14 K, 39852 kPa, m1 = 0.3043) of 820.61 ± 0.71 kg/m3 and a mass density (353.15 K, 1306 kPa, m1 = 0.9305) of 871.91 ± 0.62 kg/m3. The mass density (353.15 K, 1451 kPa, m1 = 0.05681) was 745.7 ± 0.64 kg/m3, the mass density (353.15 K, 1574 kPa, m1 = 0.3043) was 782.83 ± 0.63 kg/m3 and the mass density (353.15 K, 1687 kPa, m1 = 1.49) was 948.01 ± 0.62 kg/m3. It also gave a mass density (353.15 K, 5032 kPa, m1 = 1.49) of 951.99 ± 0.62 kg/m3, a mass density (353.15 K, 10024 kPa, m1 = 0.05681) of 755.67 ± 0.65 kg/m3 and a mass density (353.15 K, 10024 kPa, m1 = 1.49) of 957.68 ± 0.62 kg/m3. The mass density (353.15 K, 10145 kPa, m1 = 0.3043) was 792.67 ± 0.64 kg/m3, the mass density (353.15 K, 15624 kPa, m1 = 1.49) was 963.72 ± 0.62 kg/m3 and the mass density (353.15 K, 19924 kPa, m1 = 0.05681) was 766.16 ± 0.68 kg/m3. It also gave a mass density (353.15 K, 19957 kPa, m1 = 1.49) of 968.14 ± 0.62 kg/m3, a mass density (353.15 K, 20412 kPa, m1 = 0.3043) of 803.4 ± 0.66 kg/m3 and a mass density (353.15 K, 25214 kPa, m1 = 1.49) of 973.21 ± 0.62 kg/m3. The mass density (353.15 K, 29658 kPa, m1 = 1.49) was 977.25 ± 0.62 kg/m3, the mass density (353.15 K, 29952 kPa, m1 = 0.3043) was 812.36 ± 0.68 kg/m3 and the mass density (353.15 K, 30014 kPa, m1 = 0.05681) was 775.72 ± 0.71 kg/m3. For the same compound, the mass density (353.15 K, 34984 kPa, m1 = 1.49) was 981.78 ± 0.62 kg/m3, the mass density (353.15 K, 39958 kPa, m1 = 1.49) was 985.72 ± 0.62 kg/m3 and the mass density (353.15 K, 39984 kPa, m1 = 0.05681) was 784.05 ± 0.74 kg/m3. It also gave a mass density (353.16 K, 4839 kPa, m1 = 0.1696) of 767.04 ± 0.64 kg/m3, a mass density (353.16 K, 9987 kPa, m1 = 0.9305) of 881.84 ± 0.63 kg/m3 and a mass density (353.16 K, 15412 kPa, m1 = 0.05681) of 761.52 ± 0.67 kg/m3. It also gave a mass density (353.16 K, 15624 kPa, m1 = 0.3043) of 798.54 ± 0.65 kg/m3, a mass density (353.16 K, 24888 kPa, m1 = 0.1696) of 788.05 ± 0.68 kg/m3 and a mass density (353.16 K, 34658 kPa, m1 = 0.3043) of 816.41 ± 0.7 kg/m3. The mass density (353.16 K, 34826 kPa, m1 = 0.4384) was 835.96 ± 0.68 kg/m3, the mass density (353.16 K, 39714 kPa, m1 = 1.887) was 1037.55 ± 0.62 kg/m3 and the mass density (353.17 K, 4861 kPa, m1 = 0.4384) was 806.08 ± 0.63 kg/m3. The mass density (353.17 K, 14799 kPa, m1 = 0.1696) was 778.02 ± 0.66 kg/m3, the mass density (353.17 K, 14872 kPa, m1 = 1.887) was 1014.63 ± 0.62 kg/m3 and the mass density (353.17 K, 19935 kPa, m1 = 0.9305) was 892.23 ± 0.63 kg/m3. It also gave a mass density (353.17 K, 24932 kPa, m1 = 0.05681) of 771.05 ± 0.69 kg/m3, a mass density (353.17 K, 29746 kPa, m1 = 0.1696) of 792.5 ± 0.7 kg/m3 and a mass density (353.17 K, 39702 kPa, m1 = 0.1696) of 800.82 ± 0.73 kg/m3. The mass density (353.18 K, 9743 kPa, m1 = 0.4384) was 811.63 ± 0.64 kg/m3, the mass density (353.18 K, 14964 kPa, m1 = 0.9305) was 887.17 ± 0.63 kg/m3 and the mass density (353.18 K, 29738 kPa, m1 = 0.9305) was 901.43 ± 0.64 kg/m3. It also gave a mass density (353.19 K, 1518 kPa, m1 = 0.4384) of 802.12 ± 0.63 kg/m3, a mass density (353.19 K, 19828 kPa, m1 = 1.887) of 1019.76 ± 0.62 kg/m3 and a mass density (353.19 K, 24834 kPa, m1 = 0.9305) of 896.96 ± 0.64 kg/m3. The mass density (353.19 K, 39796 kPa, m1 = 0.4384) was 839.94 ± 0.69 kg/m3, the mass density (353.2 K, 1878 kPa, m1 = 1.887) was 999.87 ± 0.61 kg/m3 and the mass density (353.2 K, 4878 kPa, m1 = 1.887) was 1003.45 ± 0.62 kg/m3. The mass density (353.2 K, 24815 kPa, m1 = 1.887) was 1024.64 ± 0.62 kg/m3, the mass density (353.21 K, 14513 kPa, m1 = 0.4384) was 816.8 ± 0.65 kg/m3 and the mass density (373.12 K, 1190 kPa, m1 = 0.4384) was 780.46 ± 0.63 kg/m3. For the same compound, the mass density (373.12 K, 1697 kPa, m1 = 1.887) was 977.46 ± 0.62 kg/m3, the mass density (373.12 K, 5014 kPa, m1 = 1.887) was 981.85 ± 0.62 kg/m3 and the mass density (373.12 K, 9878 kPa, m1 = 0.4384) was 791.75 ± 0.64 kg/m3. The mass density (373.12 K, 29863 kPa, m1 = 0.1696) was 775.41 ± 0.71 kg/m3, the mass density (373.12 K, 29926 kPa, m1 = 1.887) was 1010.28 ± 0.62 kg/m3 and the mass density (373.12 K, 29956 kPa, m1 = 0.4384) was 814.15 ± 0.68 kg/m3. The mass density (373.13 K, 4952 kPa, m1 = 0.05681) was 729.35 ± 0.64 kg/m3, the mass density (373.13 K, 4965 kPa, m1 = 0.1696) was 746.64 ± 0.64 kg/m3 and the mass density (373.13 K, 9897 kPa, m1 = 1.887) was 988.07 ± 0.62 kg/m3. For the same compound, the mass density (373.13 K, 14946 kPa, m1 = 1.887) was 994.16 ± 0.62 kg/m3, the mass density (373.13 K, 20065 kPa, m1 = 1.887) was 1000 ± 0.61 kg/m3 and the mass density (373.13 K, 24795 kPa, m1 = 0.4384) was 808.88 ± 0.67 kg/m3. The mass density (373.13 K, 24847 kPa, m1 = 0.1696) was 770.29 ± 0.69 kg/m3 and the mass density (373.14 K, 1612 kPa, m1 = 0.1696) was 742.13 ± 0.63 kg/m3.
